pIC50: −log10 of the molar value.
Tests used:
Assay type in all cases: functional, cell-based
[1] = molecular target: T1, OCTN1 (Solute carrier family 22 member 4, SLC22A4) (Rattus norvegicus, UniProt Q9R141); assay: TP_TRANSPORTER: inhibition of TEA uptake by 1-methyl-4-phenylpyridinium at 5mM in Octn1-HRPE cells; design: scale not given: the % may be the effect or the level left; details: human, HRPE cells that express Octn1, probe TEA (tetraethylammonium); read-out: Activity
T1 sequence (Q9R141 whole entry): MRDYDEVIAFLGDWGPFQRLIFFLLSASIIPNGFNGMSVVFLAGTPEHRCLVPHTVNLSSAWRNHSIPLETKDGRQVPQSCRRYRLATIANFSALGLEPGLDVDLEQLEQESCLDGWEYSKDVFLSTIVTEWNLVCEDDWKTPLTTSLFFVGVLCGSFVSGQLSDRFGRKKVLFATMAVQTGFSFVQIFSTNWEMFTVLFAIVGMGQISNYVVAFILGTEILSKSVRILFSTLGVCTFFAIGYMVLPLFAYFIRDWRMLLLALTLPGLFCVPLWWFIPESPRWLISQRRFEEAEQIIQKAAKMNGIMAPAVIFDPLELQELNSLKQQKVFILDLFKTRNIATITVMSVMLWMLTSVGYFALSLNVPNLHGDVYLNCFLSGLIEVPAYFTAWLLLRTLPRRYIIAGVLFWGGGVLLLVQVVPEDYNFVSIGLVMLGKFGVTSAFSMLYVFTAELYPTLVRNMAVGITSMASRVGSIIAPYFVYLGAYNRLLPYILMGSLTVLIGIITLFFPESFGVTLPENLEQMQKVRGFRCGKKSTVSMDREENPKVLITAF

[2] = molecular target: T2, Solute carrier family 22 member 4 (Rattus norvegicus, UniProt Q9R141); assay: TP_TRANSPORTER: inhibition of TEA uptake in Octn1-HRPE cells
T2 sequence (Q9R141 whole entry): T1 sequence (Q9R141 whole entry)

[3] = molecular target: T2, Solute carrier family 22 member 4; assay: TP_TRANSPORTER: inhibition of TEA uptake by Amiloride at 1mM in Octn1-HRPE cells; design: scale not given: the % may be the effect or the level left; details: human, 1000 µM
[4] = molecular target: T1, OCTN1 (Solute carrier family 22 member 4, SLC22A4); assay: TP_TRANSPORTER: inhibition of TEA uptake by Imipramine at 1mM in Octn1-HRPE cells; design: scale not given: the % may be the effect or the level left; details: human, HRPE cells that express Octn1, probe TEA (tetraethylammonium); read-out: Activity
[5] = molecular target: T1, OCTN1 (Solute carrier family 22 member 4, SLC22A4); assay: TP_TRANSPORTER: inhibition of TEA uptake by Verapamil at 5mM in Octn1-HRPE cells; design: scale not given: the % may be the effect or the level left; details: human, HRPE cells that express Octn1, probe TEA (tetraethylammonium); read-out: Activity

| Structure (SMILES) | pIC50 [2] | further results |
| --- | --- | --- |
| C[n+]1ccc(-c2ccccc2)cc1 | – | activity at 5000 µM [1]: 62% |
| CN(C)c1nc(N)c(C(=O)NC(=N)N)nc1Cl | 3.70 | – |
| N=C(N)NC(=O)c1nc(Cl)c(N)nc1N [AMILORIDE] | – | Activity [3]: 79% |
| CN/C(=N/CCSCc1nc[nH]c1C)NC#N [CIMETIDINE] | 2.82 | – |
| CNCCCN1c2ccccc2CCc2ccccc21 [DESIPRAMINE] | 4.10 | – |
| CN(C)CCCN1c2ccccc2CCc2ccccc21 [IMIPRAMINE] | – | activity at 1000 µM [4]: 31% |
| CCN(CC)CCNC(=O)c1ccc(N)cc1 [PROCAINAMIDE] | 3.00 | – |
| CC[N+](CC)(CC)CC [TETRYLAMMONIUM] | 3.00 | – |
| COc1ccc(CCN(C)CCCC(C#N)(c2ccc(OC)c(OC)c2)C(C)C)cc1OC (centres undefined) [VERAPAMIL] | – | activity at 5000 µM [5]: 20% |

— ChEMBL document CHEMBL2074149, “Structural and functional characteristics and tissue distribution pattern of rat OCTN1, an organic cation transporter, cloned from placenta” (Biochim Biophys Acta, 2000)
